Test results from US20220347256A1, “COMPOSITION FOR PROMOTING HAIR GROWTH, AND ALLEVIATING AND TREATING HAIR LOSS INCLUDING SUBSTANCE P” (Biosolution Co., Ltd., priority 2019, published 2022).
Where no end group is shown, it is not given here.

Tests used:
dermal papilla cells = test: MTT assay of dermal papilla cell proliferation; assay type: cell-based; details: 24 hours, concentration groups 30% and 50%
Method: The effect of substance P on dermal papilla cell proliferation was analyzed by MTT assay.
More specifically, 1,000 μL of 0.5×10^5 CFU/mL dermal papilla cell suspension was added to a 12-well culture plate and incubated for 48 hours. The medium (alpha-Minimum Essential Medium, alpha-MEM+10% FBS) was removed, and then 900 μL of a fresh medium (alpha-Minimum Essential Medium, alpha-MEM +5% FBS) was dispensed into each well, and then 100 μL of the composition including substance P diluted with phosphate buffered saline (PBS) was inoculated at concentrations of 30% and 50% (the substance P was contained at a concentration of 6 mg/mL and 10 mg/mL in the composition with concentrations of 30% and 50%, respectively). Additionally, substance P (30% and 50%) at the same concentrations as the composition including substance P was respectively mixed with phosphate buffered saline and treated.
Meanwhile, 100 μL of phosphate buffered saline was used as a negative control group. After inoculation, cells were incubated at 37° C. for 24 hours, and then the medium was removed. Then, the cells were washed with phosphate buffered saline three times. […] Finally, the cells were washed with phosphate buffered saline and stirred in 150 μL of isopropyl alcohol solution for 3 hours, and absorbance at 570 nm was measured.

germinal matrix cells = test: MTT assay of germinal matrix cell proliferation; assay type: cell-based; details: 24 hours, concentration groups 30% and 50%
Method: The effect of substance P on germinal matrix cell proliferation was analyzed by MTT assay.
More specifically, 1,000 μL of 0.5×10^5 CFU/mL germinal matrix cell suspension was added to a 12-well culture plate and incubated for 48 hours. The medium (alpha-Minimum Essential Medium, alpha-MEM+10% FBS+10 ng/ml bFGF) was removed, and then 900 μL of a fresh medium (alpha-Minimum Essential Medium, alpha-MEM+5% FBS+5 ng/ml bFGF) was dispensed into each well, and then 100 μL of the composition including substance P diluted with phosphate buffered saline (PBS) was inoculated at concentrations of 30% and 50%. Additionally, substance P (30% and 50%) at the same concentration as the composition including substance P was respectively mixed with phosphate buffered saline and treated. Meanwhile, 100 μL of phosphate buffered saline was used as a negative control group. After inoculation, cells were incubated at 37° C. for 24 hours, and then the medium was removed. Then, the cells were washed with the phosphate buffered saline three times. Subsequently, 900 μL of the medium was mixed with 100 μL of the MTT solution (0.5 mg/mL), and the mixed solution was treated to each well and allowed to react at 37° C. for 3 hours. Finally, the cells were washed with the phosphate buffered saline and stirred in 150 μL of isopropyl alcohol solution for 3 hours, and absorbance at 570 nm was measured.

C3H/HeN mice [1] = test: Maintenance of skin in growth phase in C3H mice with dexamethasone-induced regression phase (black skin area); assay type: in vivo
Method: More specifically, ketamine (Yuhan Co, Ltd, Korea) and rompun (Bayer Korea, Korea) were mixed to a final concentration of 24.2 mg/mL and 1.8 mg/mL, respectively, and then six-week-old female C3H/HeN mice (Orient Bio, Korea) were anesthetized with 80 μL of the anesthetic solution. After anesthesia, the hair on the back was removed using a clipper, and the remaining hair was completely removed using a hair removal cream. Then, twelve mice with clean skin without wounds or remaining hair at the hair removal site were selected. Three mice were placed in each group so that mice with similar hair cycle were placed in each group, and thereafter the experiment was carried out. The phosphate buffered saline or the composition including the substance P at 50% concentration was intradermally injected in an amount of 50 μL each for a total of 200 μL at four sites on the back of the mice, at intervals of 3 to 4 days for 7 days from 6 days after the hair removal using an insulin syringe. […] One-way ANOVA was carried out to examine the difference between the entire groups, and the difference between individual means was analyzed using Tukey's test. […] This statistic was analyzed based on Prism software version 5. […]

C3H/HeN mice [2] = test: H&E histology, thickness and shape of skin in C3H mice with dexamethasone-induced regression phase; assay type: in vivo; details: in combination with dexamethasone
Method: More specifically, after the procedure of Example 7, the skin tissue of the mice was collected in the direction of the hair follicles and fixed in a fixing solution (4% formaldehyde, Sigma, USA) for 24 hours. […] Thereafter, an infiltration process was carried out to fill the penetrant into the tissue, followed by an embedding process to make a paraffin block. For hematoxylin (Sigma, USA) and eosin (Sigma, USA) staining, the paraffin block was cut into 8 μm and attached to slides (microscope slides, Marienfeld, Germany) coated with 2% 3-aminosilane, followed by drying in a 37° C. slide warmer for 12 hours. Thereafter, the slides were immersed in xylene four times for 7 minutes each through a deparaffinization process, and subjected to hydration for staining, and then washed with water. […] One-way ANOVA was carried out to examine the difference between the entire groups, and the difference between individual means was analyzed using Tukey's test. […] This statistic was analyzed based on Prism software version 5.
Additionally, the thickness of the dermis and the subcutaneous layers was confirmed by the Image J program. Skin thickness was measured by dividing the skin into the dermal layer (D), subcutaneous layer (SC), and whole layer (W), and 30 different areas were measured for each group and the results are shown in the graph of FIG. 13.

C3H/HeN mice [3] = test: Number of hair follicles in skin of C3H mice with dexamethasone-induced regression phase; assay type: in vivo; details: in combination with dexamethasone
Method: More specifically, after the procedure of Example 7, the skin tissue of the mice was collected in the direction vertical to the hair follicles and fixed in a fixing solution (4% formaldehyde, Sigma, USA) for 24 hours. The hematoxylin and eosin staining was carried out in the same manner as in Example 8.
Additionally, the number of hair follicles in 1 mm of skin was measured for each group by the Image J program. The number of hair follicles were measured in 10 tissues per group by dividing the skin into D, SC, and W layers, and the results are shown in the graph of FIG. 15.

Molecule | cell proliferation of dermal papilla cells (dermal papilla cells) [%] | cell proliferation of germinal matrix cells (germinal matrix cells) [%] | inhibition of the induction of the regression phase by dexamethasone (C3H/HeN mice [1]; from black skin area) [%] | black-skinned back relative to the total skin (C3H/HeN mice [1]; in combination with dexamethasone, 17 days after hair removal, Image J) [%] | inhibition of the regression phase of the subcutaneous layer (SC) compared to phosphate buffered saline (C3H/HeN mice [2]) [%] | number of hair follicles maintained in the dermis compared to phosphate buffered saline (C3H/HeN mice [3]) | number of hair follicles maintained in the subcutaneous compared to phosphate buffered saline (C3H/HeN mice [3]) | number of hair follicles maintained in the whole skin compared to phosphate buffered saline (C3H/HeN mice [3])
Arg-Pro-Lys-Pro-Gln-Gln-Phe-Phe-Gly-Leu-Met-NH2 (RPKPQQFFGLM-NH2) [substance P, in phosphate buffered saline as comparison group] | 107 | ≤ 105 | – | – | – | – | – | –
Nc1cc(N2CCCCC2)nc(N)[n+]1[O-] [minoxidil 2%, minoxidil] | – | – | 46 | 47 | 233 | about 1.4 times | about 56 times | about 3.7 times
